Assay results reported in US10633348B2, “Methods to treat lymphoplasmacytic lymphoma” (Dana-Farber Cancer Institute, Inc., priority 2013, dated 2020).

What was measured:
FYN = assay: KiNativ kinase profiling in A375 cells; type: cell-based; details: 1 μM; A375 cells
OCI-Ly7 = assay: CellTiter-Glo cell viability assay; type: cell-based; details: Homo sapiens, 72 hours
Protocol: (§1) CellTiter-Glo® Luminescent cell viability assay (Promega) was used to assess cell survival following treatment with the compounds described. Cells were seeded into 384 well plates with the EL406 Combination Washer Dispenser (BioTek Instruments, Inc.) and the compounds were injected into the cells culture media with the JANUS Automated Workstation (PerkinElmer Inc.). Cells were treated with a series diluted inhibitors (20˜0.04 μM) for 72 hours at 37° C. Luminescent measurement is performed using the 2104 Envision® Multilabel Reader (PerkinElmer Inc.).

OCI-Ly3 = assay: CellTiter-Glo cell viability assay; type: cell-based; details: Homo sapiens, OCI-Ly3, 72 h
Protocol: as §1

TMD8 = assay: CellTiter-Glo cell viability assay; type: cell-based; details: Homo sapiens, 72 hours
Protocol: as §1

BCWM.1 = assay: CellTiter-Glo cell viability assay; type: cell-based
Protocol: as §1

BTK-pY223 = assay: PhosFlow; type: cell-based; details: BCWM.1, Hck-wt and Hck-mu BCWM.1 cells; 0.5 μM and 0.1 μM
Protocol: PhosFlow was performed to detect levels of phosphorylation for BTK-pY223 (BD Biosciences) and Hck-pY410 (Abcam) in BCWM.1 cells, in BCWM cells that stably overexpress HCK (BCWM.1_HCK-wt) and in BCWM.1 cells that stably overexpress the T338M mutant of HCK (BCWM.1_HCK-mu). Cells were fixed with BD Phosflow Fix Buffer I (BD Biosciences) at 37° C. for 10 min, then washed twice with BD Phosflow Perm/Wash Buffer I (BD Biosciences). Cells were suspended in BD Phosflow Perm/Wash Buffer I at 10 million/ml and antibodies aliquoted to flow tubes with 100 μl cells. Cells were incubated at room temperature for 30 min in the dark. Cells were washed twice with BD Phosflow Perm/Wash Buffer I before performing flow analysis using a BD™ FACSCanto II flow cytometer.

BTK = type: biochemical
From the text: (§2) The in vitro activity of the compounds described herein in inhibiting TAK1, HCK and other kinases were obtained using an Invitrogen Select Screening assay as known in the art. The IC50 values determined from this assay are shown below.

LYN = type: cell-based
ZAK = type: cell-based
Hck-pY410 = assay: PhosFlow; type: cell-based; details: BCWM.1, Hck-wt and Hck-mu BCWM.1 cells; 0.5 μM and 0.1 μM
Abl = assay: KiNativ kinase profiling in A375 cells; type: cell-based; details: 1 μM; A375 cells
[1] = tested on: WM patient primary lymphoplasmacytic cells (LPCs); assay: Apoptosis analysis (Annexin V/Propidium iodide); type: cell-based; details: for Apoptosis (%): 24 hours
Protocol: WM cells were treated with and without the compounds described herein. Cells were incubated at 37° C. with 0.01˜4 uM of the compounds described herein. Apoptosis analysis was performed using Annexin V/Propidium iodide staining with the Apoptosis Detection Kit I (BD Pharmingen). 1×10^6/well cells were treated in 24 well plates for ˜24 hours with inhibitors or corresponding controls. A minimum of 10,000 events were acquired using a BD™ FACSCanto II flow cytometer and analyzed with BD FACS DIVA Software.
Apoptosis analysis of WM patient primary lymphoplasmacytic cells (LPCs) was preformed following A-5 and A-14 treatment of Bone marrow mononuclear cells (BMMC) from WM patients for 24 hours. Apoptosis analysis was performed using Annexin V/Propidium iodide staining with the Apoptosis Detection Kit I (BD Pharmingen) in CD19-APC-cy7 antibody (BD Pharmingen) gated LPCs population.

HCK = type: biochemical; details: read-out: HCK IC50 (nM) Inv
From the text: as §2

TAK1 = type: biochemical
Ramos = assay: CellTiter-Glo cell viability assay; type: cell-based; details: Homo sapiens, 72 h
Protocol: as §1

OCI-Ly19 = assay: CellTiter-Glo cell viability assay; type: cell-based; details: Homo sapiens, OCI-LY19, 72 h
Protocol: as §1

MWCL-1 = assay: CellTiter-Glo cell viability assay; type: cell-based; details: 72 h
Protocol: as §1

[2] = Isobolograms, synergy with a BTK inhibitor; details: FIG. 1
From the text: Points below the 1 to 1 line connecting the X and Y axes are ‘synergistic’, points near the line are ‘additive’, and points above it are antagonistic.

## CCN1CCN(Cc2ccc(NC(=O)c3ccc(C)c(Oc4cc(Nc5cnn(C)c5)ncn4)c3)cc2C(F)(F)F)CC1 [(A-5), N-(4-((4-ethylpiperazin-1-yl)methyl)-3-(trifluoromethyl)phenyl)-4-methyl-3-((6-((1-methyl-1H-pyrazol-4-yl)amino)pyrimidin-4-yl)oxy)benzamide]
FYN
  FYN inhibition: 71.2%
OCI-Ly7
  EC50: 655 nM
OCI-Ly3
  EC50: 4710 nM
TMD8
  EC50: 132 nM
BCWM.1; 72 hours
  EC50: 72 nM
BCWM.1; BCWM1, 72 h
  EC50: 51 nM
BTK-pY223
  BTK phosphorylation: inhibit
BTK
  IC50: > 10000 nM
LYN
  LYN inhibition: 87.8%
ZAK
  ZAK inhibition: 75.7%
Hck-pY410
  Hck phosphorylation: inhibit
Abl
  Abl inhibition: > 90%
[1]; Patient 1, 1.0 μM
  Apoptosis (%): 57.7%
[1]; Patient 2, 1.0 μM
  Apoptosis (%): 28.9%
[1]; Patient 3, 1.0 μM
  Apoptosis (%): 29.48%
[1]; Patient 4, 1.0 μM
  Apoptosis (%): 48.56%
[1]; Patient 5, 0.5 μM
  Apoptosis (%): 23.25%
[1]; Patient 5, 1.0 μM
  Apoptosis (%): 30.5%
[1]; Patient 6, 1.0 μM
  Apoptosis (%): 17.82%
[1]; Patient 7, 0.5 μM
  Apoptosis (%): 17.23%
[1]; Patient 7, 1.0 μM
  Apoptosis (%): 18.2%
[1]; Patient 8, 0.5 μM
  Apoptosis (%): 11.04%
[1]; Patient 8, 1.0 μM
  Apoptosis (%): 17.31%
[1]; Patient 10, 0.2 μM
  Apoptosis (%): 21.5%
[1]; Patient 10, 1.0 μM
  Apoptosis (%): 28.7%
[1]; Patient 11, 0.2 μM
  Apoptosis (%): 30.2%
[1]; Patient 11, 1.0 μM
  Apoptosis (%): 47%
[1]; WM patient primary LPCs
  apoptosis compared with DMSO control: induced significant apoptosis

## CCN1CCN(Cc2ccc(NC(=O)c3ccc(C)c(Oc4cc(Nc5cncnc5)ncn4)c3)cc2C(F)(F)F)CC1 [(A-8), N-(4-((4-ethylpiperazin-1-yl)methyl)-3-(trifluoromethyl)phenyl)-4-methyl-3-((6-(pyrimidin-5-ylamino)pyrimidin-4-yl)oxy)benzamide]
HCK
  IC50: 889 nM
TAK1
  IC50: 487 nM

## C=CC(=O)Nc1cc(Oc2cc(C(=O)Nc3ccc(CN4CCN(CC)CC4)c(C(F)(F)F)c3)ccc2C)ncn1 [(A-17), 3-((6-acrylamidopyrimidin-4-yl)oxy)-N-(4-((4-ethylpiperazin-1-yl)methyl)-3-(trifluoromethyl)phenyl)-4-methylbenzamide]
OCI-Ly3
  EC50: 247 nM
Ramos
  EC50: 389 nM
OCI-Ly19
  EC50: 188 nM
MWCL-1
  EC50: 202 nM
BCWM.1; BCWM1, 72 h
  EC50: 8 nM
[2]
  synergy between compound and a BTK inhibitor (isobolograms): synergy
BTK
  IC50: 3380 nM
